Experimental data as given in PMC6131351, “Pharmacological difference between degrader and inhibitor against oncogenic BCR-ABL kinase” (Scientific Reports, 2018).
Each block holds one molecule with its values, some of them ahead of it. Residues, ends and D or L forms follow the SMILES beside them. No end group written: not given here. *: point of attachment. 5FAM = O=C1OC2(c3ccc(O)cc3Oc3cc(O)ccc32)c2ccc(C(=O)*)cc21; Cbz = O=C(OCc1ccccc1)*; CH2F = FC*

How the values were obtained:
[1] = target: T1, BCR-ABL protein (Homo sapiens, UniProt P00519+P11274); experiment: Protein knockdown by western blot in K562 cells; type: cell-based; conditions: 6 h, 1-300 nM
T1 construct: examined for their activity to degrade BCR-ABL in K562 cells for 6 h; BCR (fusion partner, P11274, N-terminal part); endogenous in cells; host or cells: K562
T1 sequence (P11274+P00519 fused): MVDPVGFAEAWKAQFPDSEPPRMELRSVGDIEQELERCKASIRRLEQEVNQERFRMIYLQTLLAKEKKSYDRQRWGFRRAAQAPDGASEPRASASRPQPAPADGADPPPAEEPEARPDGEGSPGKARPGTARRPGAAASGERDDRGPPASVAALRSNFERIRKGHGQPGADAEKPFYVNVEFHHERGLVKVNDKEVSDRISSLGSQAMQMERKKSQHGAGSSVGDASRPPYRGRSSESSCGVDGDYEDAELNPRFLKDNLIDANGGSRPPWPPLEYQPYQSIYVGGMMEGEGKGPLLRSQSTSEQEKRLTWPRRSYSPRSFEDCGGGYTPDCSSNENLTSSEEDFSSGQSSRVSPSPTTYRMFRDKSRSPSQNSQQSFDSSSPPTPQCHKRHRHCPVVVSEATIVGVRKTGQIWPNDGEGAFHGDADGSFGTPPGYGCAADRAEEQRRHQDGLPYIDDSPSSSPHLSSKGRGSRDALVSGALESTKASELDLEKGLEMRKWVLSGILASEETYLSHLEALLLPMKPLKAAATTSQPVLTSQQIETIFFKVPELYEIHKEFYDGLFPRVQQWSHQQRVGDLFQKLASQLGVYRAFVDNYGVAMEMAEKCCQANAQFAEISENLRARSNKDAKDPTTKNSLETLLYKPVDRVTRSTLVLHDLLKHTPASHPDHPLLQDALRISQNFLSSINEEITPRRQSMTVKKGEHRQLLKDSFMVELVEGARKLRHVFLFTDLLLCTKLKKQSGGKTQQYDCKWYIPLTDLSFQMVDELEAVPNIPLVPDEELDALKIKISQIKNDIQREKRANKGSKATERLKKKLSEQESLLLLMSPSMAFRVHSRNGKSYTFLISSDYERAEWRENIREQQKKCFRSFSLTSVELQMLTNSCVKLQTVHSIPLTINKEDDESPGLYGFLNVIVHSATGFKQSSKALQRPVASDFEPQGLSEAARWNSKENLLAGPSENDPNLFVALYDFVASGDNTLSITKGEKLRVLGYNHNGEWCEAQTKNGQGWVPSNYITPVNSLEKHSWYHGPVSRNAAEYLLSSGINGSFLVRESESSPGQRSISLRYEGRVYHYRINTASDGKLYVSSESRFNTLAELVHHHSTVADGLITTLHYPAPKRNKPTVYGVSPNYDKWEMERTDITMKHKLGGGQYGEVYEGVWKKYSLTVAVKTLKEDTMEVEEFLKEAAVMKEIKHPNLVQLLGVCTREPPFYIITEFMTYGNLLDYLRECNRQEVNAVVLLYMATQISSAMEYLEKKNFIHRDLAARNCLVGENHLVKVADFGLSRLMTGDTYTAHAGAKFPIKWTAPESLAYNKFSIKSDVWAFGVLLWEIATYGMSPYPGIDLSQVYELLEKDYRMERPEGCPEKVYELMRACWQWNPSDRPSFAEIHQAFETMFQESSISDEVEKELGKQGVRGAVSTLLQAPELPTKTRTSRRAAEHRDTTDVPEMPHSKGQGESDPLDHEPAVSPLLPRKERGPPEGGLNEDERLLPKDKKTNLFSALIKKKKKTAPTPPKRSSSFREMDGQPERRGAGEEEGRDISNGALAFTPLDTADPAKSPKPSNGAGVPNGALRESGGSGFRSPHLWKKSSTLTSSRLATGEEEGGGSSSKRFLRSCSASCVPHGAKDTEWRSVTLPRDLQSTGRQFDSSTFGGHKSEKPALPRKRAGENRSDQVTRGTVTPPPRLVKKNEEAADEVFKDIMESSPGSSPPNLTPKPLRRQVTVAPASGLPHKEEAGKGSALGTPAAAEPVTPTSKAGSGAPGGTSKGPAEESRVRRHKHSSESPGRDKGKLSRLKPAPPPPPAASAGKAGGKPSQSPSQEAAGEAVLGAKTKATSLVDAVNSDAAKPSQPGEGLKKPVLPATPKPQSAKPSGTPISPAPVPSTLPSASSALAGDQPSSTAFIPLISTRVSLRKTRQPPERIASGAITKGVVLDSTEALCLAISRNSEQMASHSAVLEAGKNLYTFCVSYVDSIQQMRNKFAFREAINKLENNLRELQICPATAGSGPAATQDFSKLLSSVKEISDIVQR
Description: (§1) Cells were collected and lysed in a lysis buffer (0.5% Triton X-100, 0.01 M Tris-HCl (pH 7.5), 0.15 M NaCl, Complete Mini protease inhibitor cocktail (Roche Applied Science, Indianapolis, IL, USA) and PhosStop phosphatase inhibitor cocktail (Roche Applied Science)). Protein concentrations were measured by the BCA method (Thermo Fisher Scientific) and an equal amount of protein lysate was separated by SDS-PAGE, transferred to polyvinylidene difluoride membranes (Merck Millipore) and analyzed by western blot using an appropriate antibody. The immunoreactive proteins were visualized using Clarity Western ECL substrate (Bio-Rad, Hercules, CA, USA) and their light emission was quantified with a LAS-3000 lumino-image analyzer (Fuji, Tokyo, Japan).

[2] = test system: caspase 3 activation and PARP cleavage; experiment: Caspase activation and PARP cleavage after drug removal in K562 cells; type: cell-based, Human
Description: as §1, with “Japan). The following antibodies were used: anti-cAbl rabbit polyclonal antibody (pAb) (#2862), anti-XIAP rabbit pAb (#2042), anti-phospho-cAbl rabbit pAb (#3009), anti-STAT5 rabbit pAb (#9363), anti-phospho-STAT5 rabbit pAb (#9359), anti-CrkL mouse monoclonal antibody (mAb) (#3182) and anti-phospho-CrkL rabbit pAb (#3181), anti-PARP rabbit pAb (#9532), and anti-cleaved Caspase 3 rabbit pAb (#9664) (Cell Signaling Technology, Danvers, MA, USA); anti-β-tubulin (ab6046) rabbit pAb (Abcam, Cambridge, UK) and anti-GAPDH rabbit pAb (sc-25778 HRP) (Santa Cruz, Dallas, TX, USA); anti-cIAP1 goat pAb (AF8181) (R&D systems).” for “Japan).”
(§2) Cells were seeded at a concentration of 2 × 10^6 cells per 10-cm tissue culture dish and treated with the indicated compounds for the indicated times. Then, the cells were washed three times to remove the compounds, and incubated in drug-free medium for the indicated times.

[3] = test system: K562 cells; experiment: WST cell growth inhibition, K562; type: cell-based, Human; conditions: 48 h
Description: (§3) Human CML (K562 and KU812 cells), acute T-lymphoblast leukemia (MOLT-4 cell), and T cell leukemia (Jurkat cell) were cultured in Roswell Park Memorial Institute-1640 medium (Sigma-Aldrich, St. Louis, MO, USA) containing 10% fetal bovine serum (Thermo Fisher Scientific, Waltham, MA, USA) and 50 μg/ml kanamycin (Sigma-Aldrich). KU812 cells were obtained from Japanese Collection of Research Bioresources (JCRB, Osaka, Japan) Cell Bank (JCRB0104)[58].
(§4) Cell viability was determined using water-soluble tetrazolium WST-8 (4-[3-(2-methoxy-4-nitrophenyl)-2-(4-nitrophenyl)-2H-5-tetrazolio]-1,3-benzene disulfonate) for the spectrophotometric assay and conducted according to the manufacturer’s instructions (Dojindo, Tokyo, Japan). Cells were seeded at a concentration of 5 × 10^3 cells per well in a 96-well culture plate, and treated with the indicated compounds for 48 h. The WST-8 reagent was added, and the cells were incubated for 0.5 h at 37 °C in a humidified atmosphere of 5% CO2. The absorbance at 450 nm of the medium was measured using the EnVision Multilabel Plate Reader.

[4] = test system: K562 cells; experiment: Washout experiment, cell counting of K562 cells; type: cell-based, Human; conditions: 25 or 50 times IC50 for 12 h, washed, drug-free medium for 6 d
Description: as §2

[5] = test system: KU812 cells; experiment: WST cell growth inhibition, KU812; type: cell-based; conditions: Homo sapiens, 48 h, WST assay, means ± SD (n = 3)
Description: as §3, §4

[6] = test system: phosphorylation of BCR-ABL, STAT5 and CrkL; experiment: Downstream kinase signaling (phosphorylation) by western blot in K562 cells; type: cell-based, Human
Description: as §1, with “Japan). The following antibodies were used: anti-cAbl rabbit polyclonal antibody (pAb) (#2862), anti-XIAP rabbit pAb (#2042), anti-phospho-cAbl rabbit pAb (#3009), anti-STAT5 rabbit pAb (#9363), anti-phospho-STAT5 rabbit pAb (#9359), anti-CrkL mouse monoclonal antibody (mAb) (#3182) and anti-phospho-CrkL rabbit pAb (#3181), anti-PARP rabbit pAb (#9532), and anti-cleaved Caspase 3 rabbit pAb (#9664) (Cell Signaling Technology, Danvers, MA, USA); anti-β-tubulin (ab6046) rabbit pAb (Abcam, Cambridge, UK) and anti-GAPDH rabbit pAb (sc-25778 HRP) (Santa Cruz, Dallas, TX, USA); anti-cIAP1 goat pAb (AF8181) (R&D systems).” for “Japan).”
as §2

[7] = target: T2, recombinant His-tagged human cIAP2 (BIR3, Gln238-Ser349) (human, UniProt Q13489 238-349); experiment: AlphaScreen or HTRF; TR-FRET competition assay: 0.6 nM His-IAP BIR3 held by biotinylated anti-His antibody and terbium-streptavidin, FITC-Smac probe (27 nM for XIAP, 12 nM for cIAP1, 19 nM for cIAP2), small-molecule test compounds as competitors; 50 mM HEPES pH 7.2-7.5, 10 mM MgCl2, 1 mM EGTA, 0.1 mM DTT, 0.01% Brij 35; room temperature; conditions: both partners purified
T2 construct: cIAP2, human, BIR3 domain, residues Gln238-Ser349; also called His-IAP proteins; source: E. coli, purified (Ni-NTA column, gel filtration chromatography)
T2 sequence (Q13489 238-349): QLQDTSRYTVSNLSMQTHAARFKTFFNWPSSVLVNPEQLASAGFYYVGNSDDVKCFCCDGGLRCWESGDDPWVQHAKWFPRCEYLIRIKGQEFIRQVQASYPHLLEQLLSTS

[8] = target: T3, recombinant His-tagged human XIAP (BIR3, Asn252-Thr356) (human, UniProt P98170 252-356); experiment: as above; conditions: both partners purified
T3 construct: XIAP, human, BIR3 domain, residues Asn252-Thr356; also called His-IAP proteins; source: bought: R&D Systems (895-XB-050)
T3 sequence (P98170 252-356): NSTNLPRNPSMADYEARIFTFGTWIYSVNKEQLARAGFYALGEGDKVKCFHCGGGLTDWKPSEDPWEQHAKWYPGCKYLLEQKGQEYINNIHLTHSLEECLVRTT

[9] = target: T4, recombinant His-tagged human cIAP1 (BIR3, Leu250-Gly350) (human, UniProt Q13490 250-350); experiment: as above; conditions: both partners purified
T4 construct: cIAP1, human, BIR3 domain, residues Leu250-Gly350; also called His-IAP proteins; source: E. coli, purified (Ni-NTA column, gel filtration chromatography)
T4 sequence (Q13490 250-350): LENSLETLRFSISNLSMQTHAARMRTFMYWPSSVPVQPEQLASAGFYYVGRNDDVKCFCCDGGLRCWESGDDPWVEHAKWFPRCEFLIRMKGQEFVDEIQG

knockdown activity against the BCR-ABL protein [1]: negligible activity
Molecule: Cc1nc(Nc2ncc(C(=O)Nc3c(C)cccc3Cl)s2)cc(N2CCN(C(=O)COCCOCCOCC(=O)N[C@H](C(=O)N3C[C@H](O)C[C@H]3C(=O)NCc3ccc(-c4scnc4C)cc3)C(C)(C)C)CC2)n1 [DAS-VHL]

knockdown activity against the BCR-ABL protein [1]: weak
Molecule: CCN1CCN(Cc2ccc(NC(=O)c3cccc(-c4ccc5nc(NC(=O)COCCOCCOCCOc6cccc(C(=O)c7csc([C@@H]8CCCN8C(=O)[C@@H](NC(=O)[C@H](C)NC)C8CCCCC8)n7)c6)sc5n4)c3)cc2C(F)(F)F)CC1 [HG-IAP]

binding result [7]: binds
binding result [8]: binds
binding result [9]: binds
B1: FITC-labeled Smac peptide (FITC-Smac, AVPIAQK(5-FAM)-NH2) (peptide)
peptide: AVPIAQK(5FAM)-NH2
modifications: N-terminus assumed
SMILES: CC[C@H](C)[C@H](NC(=O)[C@@H]1CCCN1C(=O)[C@@H](NC(=O)[C@H](C)N)C(C)C)C(=O)N[C@@H](C)C(=O)N[C@@H](CCC(N)=O)C(=O)N[C@@H](CCCCNC(=O)c1ccc2c(c1)C(=O)OC21c2ccc(O)cc2Oc2cc(O)ccc21)C(N)=O
notes: N-terminal stretch of mature Smac (DIABLO); Fluorescent probe of the TR-FRET assay; source: synthetic peptide (synthesized in Scrum, Tokyo)

Second part, the molecule before the results:

Molecule: Cc1nc(Nc2ncc(C(=O)Nc3c(C)cccc3Cl)s2)cc(N2CCN(CCO)CC2)n1 [Dasatinib, dasatinib, reference compound]
caspase 3 activation and PARP cleavage ([2]; K562, 50 times IC50 for 12 h, drug removal for 24 h): not
times more active than DAS-IAP to inhibit CML cell growth [3]: 100 times
IC50 ([3]; Homo sapiens, WST assay, means ± SD (n = 3)): 0.0793 ± 0.0037 nM
growth of K562 cells after drug removal [4]: slightly delayed the growth
IC50 [5]: 0.0448 ± 0.0005 nM
phosphorylation of BCR-ABL, STAT5 and CrkL ([6]; K562, 50 times IC50 for 12 h (time 0)): inhibited
phosphorylation of BCR-ABL, STAT5 and CrkL ([6]; K562 cells, 6 h): suppressed

Molecule: CCN1CCN(Cc2ccc(NC(=O)c3cccc(-c4ccc5nc(NC(=O)COCCOCCOCC(=O)N[C@H](C(=O)N6C[C@H](O)C[C@H]6C(=O)NCc6ccc(-c7scnc7C)cc6)C(C)(C)C)sc5n4)c3)cc2C(F)(F)F)CC1 [HG-VHL]
suppression of K562 cell growth (comparison) ([3]; WST assay): more potent suppression of the growth of K562 cells than HG-IAP and HG-CRBN
knockdown activity against the BCR-ABL protein [1]: effective protein knockdown activity

Molecule: COC(=O)C[C@H](NC(=O)[C@H](C)NC(=O)[C@@H](NC(=O)OCc1ccccc1)C(C)C)C(=O)CF [zVAD-FMK, reference compound] (Cbz-Val-Ala-Asp(OMe)-CH2F)
effect on caspase activation and PARP cleavage by DAS-IAP ([2]; K562, after DAS-IAP pulse and drug removal, 24 h): abrogated
